Measured values as given in US20240166681A1, “3'3' CYCLIC DINUCLEOTIDES CONTAINING ISONUCLEOTIDIC UNITS” (INSTITUTE OF ORGANIC CHEMISTRY AND BIOCHEMISTRY AS CR, V. …, priority 2021, published 2024).
Like-named read-outs stand apart in the source and are kept apart here.

How the values were obtained:
WT STING = WT STING (Homo sapiens, UniProt Q86WV6, H232R); assay: 293T WT STING standard reporter assay; type: cell-based; set-up: host or cells: 293T (ATCC CRL-3216), stably transfected; conditions: 293T wtSTING-FL cells, no digitonin, 7 h incubation, luciferase reporter
Description: After 5 minutes incubation at room temperature (RT), 250 μL of the mixture was added dropwise to the cells in one well. Cells were incubated 36 hours at 37° C. with 5% CO2, and then detached with 0.05% Trypsin and 0.22 g/L EDTA (both cat. #L0941, Biowest, Riverside, USA).
Transfected cells were seeded onto poly-D-lysine coated six well plates at density 50,000 cells per 1 cm^2 in DMEM medium with high glucose containing 10% heat inactivated FBS, 30 μg/mL blasticidin (cat. #ant-b1-05, InvivoGen, San Diego, USA), 0.06 mg/ml Penicillin G and 0.1 mg/ml Streptomycin Sulfate (both cat. #. L0018, Biowest, Riverside, USA). The medium was replenished every 3-4 days until visible colonies of cells resistant to blasticidin were formed.
Blasticidin resistant cells stably expressing WT STING were further transfected with […] plasmid following the same procedure as described above. […] Homogeneous culture of stably double transfected cells was prepared by limiting dilution of cells in 96 well plates and wells with cells were selected that originated from a single cell.
The medium was removed next day and three-fold serial dilutions of compounds in 100 μl medium were added to the cells. The plates with cells were incubated for 7 hours at 37° C. with 5% CO2. After 50 μl of the medium was removed, 30 μl of ONE-Glo™ Luciferase Assay System reagent (cat. #E6120, Promega, Madison, USA) was added to each well and luminescence was read on Synergy H1 (Biotek, Winooski, USA). […] (cat. #tlrl-nacga23), and 2′2′-cGAMP (cat. #tlrl-nacga22) were purchased from Invivogen (San Diego, USA).

[1] = test system: peripheral blood mononuclear cell (PBMC); assay: Peripheral blood mononuclear cell assay (cytokine levels); type: cell-based; conditions: 1 h with compound, wash, 15 h, average of at least two donors
Description: Selected compounds were tested in an in vitro peripheral blood mononuclear cell (PBMC) assay. Freshly isolated PBMCs were seeded into U-shaped shaped 96-well plates at desity 500,000 cells per well in 50 μl of RPMI 1640 medium supplemented with 10% heat inactivated FBS. Serially dilluted tested compounds were added to wells in 50 μl of cultivation medium and cell were incubated with compounds for 1 h at 37° C. with 5% CO2. Plates with cells were then spun 500 g for 5 minutes and medium was removed. Cells were washed twice with the cell culture medium by the use of centrifugation and gently resuspended in 100 μl medium without compounds. After 15 hour incubation at 37° C. with 5% CO2, the cell culture medium was collected and the levels of interferon-alpha (INF-α), interferon-gamma (INF-γ) and tumor necrosis factor-alpha (TNF-α) were determined with ProcartaPlex Assays (ThermoFisher, Waltham, USA) and MAGPIX System (Merck KGaA, Darmstadt, Germany). GraphPad Prism (San Diego, CA, USA) was used to calculate the 50% effective concentration (EC50) from a 6-point dose-response curve. Values reported are an average of runs from at least two donors.

WT STING, sequence (Q86WV6 whole entry H232R): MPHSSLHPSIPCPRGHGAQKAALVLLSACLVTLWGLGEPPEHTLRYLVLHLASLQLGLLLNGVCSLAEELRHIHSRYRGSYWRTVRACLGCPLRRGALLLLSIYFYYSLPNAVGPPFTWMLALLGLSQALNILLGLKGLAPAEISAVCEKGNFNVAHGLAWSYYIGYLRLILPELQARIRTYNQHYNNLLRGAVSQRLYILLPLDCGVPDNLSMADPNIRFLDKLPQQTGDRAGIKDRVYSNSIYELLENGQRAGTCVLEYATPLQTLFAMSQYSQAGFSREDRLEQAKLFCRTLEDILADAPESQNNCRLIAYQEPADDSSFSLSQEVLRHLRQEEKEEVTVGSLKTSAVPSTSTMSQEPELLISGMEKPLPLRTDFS

Row | Compound | EC50 (WT STING) [nM] | EC50 ([1]; read-out: PBMC EC50 IFN-α) [nM] | EC50 ([1]; read-out: PBMC EC50 IFN-γ) [nM] | EC50 ([1]; read-out: PBMC EC50 TNF-α) [nM]
1 | CC(C)(C)C(=O)OCOP1(=O)OC[C@H]2OC[C@@H](n3cnc4c(N)ncnc43)[C@@H]2OP(=O)(OCOC(=O)C(C)(C)C)OC[C@H]2O[C@@H](n3cnc4c(N)ncnc43)[C@H](F)[C@@H]2O1 (single isomer, unassigned) [Compound 36a] | 88 |  |  | 
2 | CC(C)(C)C(=O)OCOP1(=O)OC[C@H]2OC[C@@H](n3cnc4c(N)ncnc43)[C@@H]2OP(=O)(OCOC(=O)C(C)(C)C)OC[C@H]2O[C@@H](n3cnc4c(N)ncnc43)[C@H](F)[C@@H]2O1 (single isomer, unassigned) [Compound 36b] | 77 |  |  | 
3 | CC(C)(C)C(=O)OCOP1(=O)OC[C@H]2OC[C@@H](n3cnc4c(N)ncnc43)[C@@H]2OP(=O)(OCOC(=O)C(C)(C)C)OC[C@H]2O[C@@H](n3cnc4c(N)ncnc43)[C@H](F)[C@@H]2O1 (single isomer, unassigned) [Compound 36c] | 52 |  |  | 
4 | CC(C)(C)C(=O)OCOP1(=O)OC[C@H]2OC[C@@H](n3cnc4c(N)ncnc43)[C@@H]2OP(=O)(OCOC(=O)C(C)(C)C)OC[C@H]2O[C@@H](n3cnc4c(N)ncnc43)[C@H](F)[C@@H]2O1 (single isomer, unassigned) [Compound 36d] | 28 | 184 | 115 | 326
5 | CC1(C(=O)OCOP2(=O)OC[C@H]3OC[C@@H](n4cnc5c(N)ncnc54)[C@@H]3OP(=O)(OCOC(=O)C3(C)CCCCC3)OC[C@H]3O[C@@H](n4cnc5c(N)ncnc54)[C@H](F)[C@@H]3O2)CCCCC1 (single isomer, unassigned) [Compound 56a] | 285 |  |  | 
6 | CC1(C(=O)OCOP2(=O)OC[C@H]3OC[C@@H](n4cnc5c(N)ncnc54)[C@@H]3OP(=O)(OCOC(=O)C3(C)CCCCC3)OC[C@H]3O[C@@H](n4cnc5c(N)ncnc54)[C@H](F)[C@@H]3O2)CCCCC1 (single isomer, unassigned) [Compound 56b] | 44 |  |  | 
7 | CC1(C(=O)OCOP2(=O)OC[C@H]3OC[C@@H](n4cnc5c(N)ncnc54)[C@@H]3OP(=O)(OCOC(=O)C3(C)CCCCC3)OC[C@H]3O[C@@H](n4cnc5c(N)ncnc54)[C@H](F)[C@@H]3O2)CCCCC1 (single isomer, unassigned) [Compound 56c] | 21 |  |  | 
8 | CC1(C(=O)OCOP2(=O)OC[C@H]3OC[C@@H](n4cnc5c(N)ncnc54)[C@@H]3OP(=O)(OCOC(=O)C3(C)CCCCC3)OC[C@H]3O[C@@H](n4cnc5c(N)ncnc54)[C@H](F)[C@@H]3O2)CCCCC1 (single isomer, unassigned) [Compound 56d] | 41 | 325 | 48 | 159
9 | CCC(C)(C)C(=O)OCOP1(=O)OC[C@H]2OC[C@@H](n3cnc4c(N)ncnc43)[C@@H]2OP(=O)(OCOC(=O)C(C)(C)CC)OC[C@H]2O[C@@H](n3cnc4c(N)ncnc43)[C@H](F)[C@@H]2O1 (single isomer, unassigned) [Compound 57a] | 32 |  |  | 
10 | CCC(C)(C)C(=O)OCOP1(=O)OC[C@H]2OC[C@@H](n3cnc4c(N)ncnc43)[C@@H]2OP(=O)(OCOC(=O)C(C)(C)CC)OC[C@H]2O[C@@H](n3cnc4c(N)ncnc43)[C@H](F)[C@@H]2O1 (single isomer, unassigned) [Compound 57b] | 18 |  |  | 
11 | CCC(C)(C)C(=O)OCOP1(=O)OC[C@H]2OC[C@@H](n3cnc4c(N)ncnc43)[C@@H]2OP(=O)(OCOC(=O)C(C)(C)CC)OC[C@H]2O[C@@H](n3cnc4c(N)ncnc43)[C@H](F)[C@@H]2O1 (single isomer, unassigned) [Compound 57c] | 13 |  |  | 
12 | CCC(C)(C)C(=O)OCOP1(=O)OC[C@H]2OC[C@@H](n3cnc4c(N)ncnc43)[C@@H]2OP(=O)(OCOC(=O)C(C)(C)CC)OC[C@H]2O[C@@H](n3cnc4c(N)ncnc43)[C@H](F)[C@@H]2O1 (single isomer, unassigned) [Compound 57d] | 14 | 258 | 80 | 206
13 | CCCCCCCC(=O)OCOP1(=O)OC[C@H]2OC[C@@H](n3cnc4c(N)ncnc43)[C@@H]2OP(=O)(OCOC(=O)CCCCCCC)OC[C@H]2O[C@@H](n3cnc4c(N)ncnc43)[C@H](F)[C@@H]2O1 (single isomer, unassigned) [Compound 58a] | 5 |  |  | 
14 | CCCCCCCC(=O)OCOP1(=O)OC[C@H]2OC[C@@H](n3cnc4c(N)ncnc43)[C@@H]2OP(=O)(OCOC(=O)CCCCCCC)OC[C@H]2O[C@@H](n3cnc4c(N)ncnc43)[C@H](F)[C@@H]2O1 (single isomer, unassigned) [Compound 58b] | 1 |  |  | 
15 | CCCCCCCC(=O)OCOP1(=O)OC[C@H]2OC[C@@H](n3cnc4c(N)ncnc43)[C@@H]2OP(=O)(OCOC(=O)CCCCCCC)OC[C@H]2O[C@@H](n3cnc4c(N)ncnc43)[C@H](F)[C@@H]2O1 (single isomer, unassigned) [Compound 58c] | 2 |  |  | 
16 | CCCCCCCC(=O)OCOP1(=O)OC[C@H]2OC[C@@H](n3cnc4c(N)ncnc43)[C@@H]2OP(=O)(OCOC(=O)CCCCCCC)OC[C@H]2O[C@@H](n3cnc4c(N)ncnc43)[C@H](F)[C@@H]2O1 (single isomer, unassigned) [Compound 58d] | 2 | 38 | 16 | 37
17 | Nc1nc2c(ncn2[C@@H]2O[C@@H]3COP(=O)(O)O[C@@H]4[C@H](O)[C@@H](COP(=O)(O)O[C@@H]2[C@@H]3O)O[C@H]4n2cnc3c(N)ncnc32)c(=O)[nH]1 [2′2′-cGAMP, reference compound] | 10200 |  |  | 
